Columns and labels:
C-28/I2 chondrocytes = assay: toxicity screen to establish maximum tolerable concentrations in chondrocytes
Excerpt: A clonal derivative of ATCC-certified normal chondrocytes was used for a study to determine cytokine expression. The parent line was originally derived from costal cartilage of an adolescent person. The cell line used is C-28/I2 accession number CVCL_0187. The cells were immortalized via retroviral vector-mediated SV40 Large T antigen expression. Cells were confirmed negative for mycoplasma contamination and genotyped by STR analysis to verify cell identity. This cell line is widely used as a model for studying normal and pathological cartilage repair mechanisms and inflammation.
The cells were cultured at 37° C. with 5% CO2, DMEM/F12 media supplemented with 10% heat-inactivated fetal bovine serum. Antimicrobials were not added to the media. Cells were maintained between 40 and 80% confluency to avoid terminal differentiation. Cells used for the experiments had been passaged no more than ten times prior to each experiment.
A series of pilot studies were performed to design the final full-scale experiment. First, a toxicity screen for each test compound was performed to establish maximum tolerable concentrations in this model system. Second, assays were run to establish the optimal means of inducing a pro-inflammatory state in the cell culture system. Third, conditions were tested to set the most favorable dilution scheme in order to maintain samples within the linear range of detection for each analyte. To establish the test concentrations for each test compound, chondrocytes were treated with a serial dilution of each compound, for 24 and 48 hours under serum free conditions. Oleocanthal or CBD were tested at two-fold dilutions down from a concentration of 50 micromolar (μM).

[1] = system: IL-13 production by chondrocytes (C-28/I2); assay: cytokine array of conditioned media from IL1β-stimulated chondrocytes: IL-13; assay type: cell-based, human; details: Moderate level (2.00 μM) of CBD alone, IL1β 10 ng/ml, 24 hours, no serum, FIG. 2
Excerpt: Antimicrobials were not added to the media.
Three wells were utilized per sample condition.

Structure (SMILES): C=C(C)[C@@H]1CCC(C)=C[C@H]1c1c(O)cc(CCCCC)cc1O [CBD, cannabidiol]
- maximum tolerable concentration (C-28/I2 chondrocytes; chondrocytes, 24 hours post-treatment, serum free): 6 µM
- generated amount of IL13 [1]: greatly reduced

Structure (SMILES): O=C(O)c1cccnc1 [niacin, niacin/nicotinic acid]
- maximum tolerable concentration (C-28/I2 chondrocytes; human, 24 h): 1000 µM

Structure (SMILES): C/C=C(/C=O)[C@@H](CC=O)CC(=O)OCCc1ccc(O)cc1 [oleocanthal]
- maximum tolerable concentration (C-28/I2 chondrocytes; human, 24 h): 6 µM

Source: patent US12576094B2, “Combination cannabinoid-phenylethanoid formulation for treatment of inflammation and methods related thereto” (Canole LLC, priority 2019, dated 2026)
